In brackets after ≈: the same amount, converted by molar mass.
Legend:
Escherichia coli [1] = assay: Antibacterial activity against Escherichia coli ATCC 25922 assessed as inhibition of bacterial growth incubated for 24 hrs by broth dilution method; assay type: functional
[2] = Hemolytic activity against rabbit blood cells incubated for 1 hr relative to control; assay type: toxicity, cell-based, Oryctolagus cuniculus, Erythrocyte; details: rabbit blood cells (erythrocytes)
Escherichia coli [3] = assay: Bactericidal activity against Escherichia coli ATCC 25922 assessed as bacterial reduction at 8 time of MIC concentration incubated for 2 hrs by time-kill assay; assay type: functional
Staphylococcus aureus [4] = assay: Drug resistance, ratio of MIC for Staphylococcus aureus NCTC 10442 after 21 passages to MIC for Staphylococcus aureus NCTC 10442 during first exposure; assay type: functional
Staphylococcus aureus [5] = assay: In vivo antibacterial activity against Staphylococcus aureus ATCC 29213 infected C57BL6 mouse corneal infection model assessed as reduction in bacterial burden at 50 mg/ml, TOP 4 times in a day for 3 consecutive days; assay type: functional; details: time 3 day
Pseudomonas aeruginosa [6] = assay: In vivo antibacterial activity against Pseudomonas aeruginosa ATCC 9027 infected C57BL6 mouse corneal infection model assessed as reduction in bacterial burden at 3 mg/ml, TOP 4 times in a day for 2 consecutive days; assay type: functional; details: time 2 day
Staphylococcus aureus [7] = assay: Antibacterial activity against Staphylococcus aureus ATCC 29213 assessed as inhibition of bacterial growth incubated for 24 hrs by broth dilution method; assay type: functional
Staphylococcus aureus [8] = assay: Antibacterial activity against methicillin-resistant Staphylococcus aureus N315 assessed as inhibition of bacterial growth incubated for 24 hrs by broth dilution method; assay type: functional
Staphylococcus aureus [9] = assay: Antibacterial activity against methicillin-resistant Staphylococcus aureus NCTC 10442 assessed as inhibition of bacterial growth incubated for 24 hrs by broth dilution method; assay type: functional
Acinetobacter baumannii [10] = assay: Antibacterial activity against Acinetobacter baumannii ATCC 17978 assessed as inhibition of bacterial growth incubated for 24 hrs by broth dilution method; assay type: functional
Acinetobacter baumannii [11] = assay: Antibacterial activity against Acinetobacter baumannii R2889 assessed as inhibition of bacterial growth incubated for 24 hrs by broth dilution method; assay type: functional
Klebsiella pneumoniae [12] = assay: Antibacterial activity against Klebsiella pneumoniae ATCC 14581 assessed as inhibition of bacterial growth incubated for 24 hrs by broth dilution method; assay type: functional
Klebsiella pneumoniae [13] = assay: Antibacterial activity against Klebsiella pneumoniae ATCC 10031 assessed as inhibition of bacterial growth incubated for 24 hrs by broth dilution method; assay type: functional
Pseudomonas aeruginosa [14] = assay: Antibacterial activity against Pseudomonas aeruginosa ATCC 9027 assessed as inhibition of bacterial growth incubated for 24 hrs by broth dilution method; assay type: functional

Work on `CC1(C)S[C@@H]2[C@H](NC(=O)[C@H](N)c3ccc(O)cc3)C(=O)N2[C@H]1C(=O)O` [AMOXICILLIN] yielded an MIC (Escherichia coli [1]) of 6.25 µg/mL (≈ 17.1 µM), an HC50 at 1 h [2] greater than 200 µg/mL and an Activity (Escherichia coli [3]) of 2.9 log10FFU/ml. It also gave a Ratio (Staphylococcus aureus [4]) of 8.
Work on `NC[C@H]1O[C@H](O[C@H]2[C@H](O)[C@@H](O[C@H]3O[C@H](CO)[C@@H](O)[C@H](N)[C@H]3O)[C@H](N)C[C@@H]2N)[C@H](N)C[C@@H]1O` [TOBRAMYCIN] yielded an Activity (Staphylococcus aureus [5]) of 5.21 log10FFU/ml and an Activity (Pseudomonas aeruginosa [6]) of 4.64 log10FFU/ml.
Work on `C=C(C)[C@@H]1CCC(C)=C[C@H]1c1c(OCCCCN(CCCC)CCCC)cc(CCCCC)cc1OCCCCN(CCCC)CCCC` yielded an MIC (Staphylococcus aureus [7]) greater than 50 µg/mL, an MIC (Staphylococcus aureus [8]) greater than 50 µg/mL and an MIC (Staphylococcus aureus [9]) greater than 50 µg/mL. The MIC (Escherichia coli [1]) was greater than 100 µg/mL, the MIC (Acinetobacter baumannii [10]) was greater than 50 µg/mL and the MIC (Acinetobacter baumannii [11]) was greater than 50 µg/mL. The MIC (Klebsiella pneumoniae [12]) was greater than 50 µg/mL, the MIC (Klebsiella pneumoniae [13]) was greater than 50 µg/mL and the MIC (Pseudomonas aeruginosa [14]) was greater than 50 µg/mL. The HC50 at 1 h [2] was greater than 200 µg/mL.
Molecule `C=C(C)[C@@H]1CCC(C)=C[C@H]1c1c(OCC(=O)N[C@@H](CCCNC(=N)N)C(=O)N[C@@H](CCCNC(=N)N)C(=O)OC)cc(CCCCC)cc1OCC(=O)N[C@@H](CCCNC(=N)N)C(=O)N[C@@H](CCCNC(=N)N)C(=O)OC` has an MIC (Staphylococcus aureus [7]) of 1.56 µg/mL (≈ 1.44 µM), an MIC (Staphylococcus aureus [8]) of 1.56 µg/mL (≈ 1.44 µM) and an MIC (Staphylococcus aureus [9]) of 1.56 µg/mL (≈ 1.44 µM). It also gave an MIC (Escherichia coli [1]) of 50 µg/mL (≈ 46.2 µM), an MIC (Acinetobacter baumannii [10]) of 25 µg/mL (≈ 23.1 µM) and an MIC (Acinetobacter baumannii [11]) of 50 µg/mL (≈ 46.2 µM). For the same molecule, the MIC (Klebsiella pneumoniae [12]) was greater than 50 µg/mL, the MIC (Klebsiella pneumoniae [13]) was 50 µg/mL (≈ 46.2 µM) and the MIC (Pseudomonas aeruginosa [14]) was 50 µg/mL (≈ 46.2 µM). It also gave an HC50 at 1 h [2] greater than 200 µg/mL.
In the case of `C=C(C)[C@@H]1CCC(C)=C[C@H]1c1c(OCCCCN(CCO)CCO)cc(CCCCC)cc1OCCCCN(CCO)CCO`, the MIC (Staphylococcus aureus [7]) is reported as 25 µg/mL (≈ 39.5 µM), the MIC (Staphylococcus aureus [8]) is reported as 25 µg/mL (≈ 39.5 µM) and the MIC (Staphylococcus aureus [9]) is reported as 25 µg/mL (≈ 39.5 µM). For the same molecule, the MIC (Escherichia coli [1]) was 100 µg/mL (≈ 158 µM), the MIC (Acinetobacter baumannii [10]) was greater than 50 µg/mL and the MIC (Acinetobacter baumannii [11]) was 50 µg/mL (≈ 79 µM). It also gave an MIC (Klebsiella pneumoniae [12]) of 50 µg/mL (≈ 79 µM), an MIC (Klebsiella pneumoniae [13]) of 25 µg/mL (≈ 39.5 µM) and an MIC (Pseudomonas aeruginosa [14]) greater than 50 µg/mL. It also gave an HC50 at 1 h [2] greater than 200 µg/mL.
In the case of `C=C(C)[C@@H]1CCC(C)=C[C@H]1c1c(OCCCCN(CC)CC)cc(CCCCC)cc1OCCCCN(CC)CC`, the MIC (Staphylococcus aureus [7]) is reported as 6.25 µg/mL (≈ 11 µM), the MIC (Staphylococcus aureus [8]) is reported as 6.25 µg/mL (≈ 11 µM) and the MIC (Staphylococcus aureus [9]) is reported as 12.5 µg/mL (≈ 22 µM). It also gave an MIC (Escherichia coli [1]) greater than 50 µg/mL, an MIC (Acinetobacter baumannii [10]) greater than 50 µg/mL and an MIC (Acinetobacter baumannii [11]) of 50 µg/mL (≈ 87.9 µM). The MIC (Klebsiella pneumoniae [12]) was greater than 50 µg/mL, the MIC (Klebsiella pneumoniae [13]) was 50 µg/mL (≈ 87.9 µM) and the MIC (Pseudomonas aeruginosa [14]) was greater than 50 µg/mL. The HC50 at 1 h [2] was greater than 200 µg/mL.
Molecule `C=C(C)[C@@H]1CCC(C)=C[C@H]1c1c(OCCCCCCNC(=N)N)cc(CCCCC)cc1OCCCCCCNC(=N)N` has an MIC (Staphylococcus aureus [7]) of 0.78 µg/mL (≈ 1.31 µM), an MIC (Staphylococcus aureus [8]) of 1.56 µg/mL (≈ 2.61 µM) and an MIC (Staphylococcus aureus [9]) of 1.56 µg/mL (≈ 2.61 µM). For the same molecule, the MIC (Escherichia coli [1]) was 12.5 µg/mL (≈ 20.9 µM), the MIC (Acinetobacter baumannii [10]) was 12.5 µg/mL (≈ 20.9 µM) and the MIC (Acinetobacter baumannii [11]) was 12.5 µg/mL (≈ 20.9 µM). The MIC (Klebsiella pneumoniae [12]) was greater than 50 µg/mL, the MIC (Klebsiella pneumoniae [13]) was 25 µg/mL (≈ 41.9 µM) and the MIC (Pseudomonas aeruginosa [14]) was greater than 50 µg/mL. The HC50 at 1 h [2] was 72.6 µg/mL.
`CCn1cc(C(=O)O)c(=O)c2cc(F)c(N3CCNCC3)cc21` [NORFLOXACIN] showed a Ratio (Staphylococcus aureus [4]) of 128.
Work on `C=C(C)[C@@H]1CCC(C)=C[C@H]1c1c(OCCCBr)cc(CCCCC)cc1OCCCBr` yielded an MIC (Staphylococcus aureus [7]) greater than 50 µg/mL, an MIC (Staphylococcus aureus [8]) greater than 50 µg/mL and an MIC (Staphylococcus aureus [9]) greater than 50 µg/mL. It also gave an MIC (Escherichia coli [1]) greater than 50 µg/mL, an MIC (Acinetobacter baumannii [10]) greater than 50 µg/mL and an MIC (Acinetobacter baumannii [11]) greater than 50 µg/mL. For the same molecule, the MIC (Klebsiella pneumoniae [12]) was greater than 50 µg/mL, the MIC (Klebsiella pneumoniae [13]) was greater than 50 µg/mL and the MIC (Pseudomonas aeruginosa [14]) was greater than 50 µg/mL. It also gave an HC50 at 1 h [2] greater than 200 µg/mL.

Reference: ChEMBL document CHEMBL5543084, “Development of cannabidiol derivatives as potent broad-spectrum antibacterial agents with membrane-disruptive mechanism” (Eur J Med Chem, 2024)
